From patent publication EP4667468A1, “COMPOUND FOR INHIBITING NLRP3, PREPARATION METHOD, AND USE” (Shenzhen Zhongge Biological Technology Co., Ltd., priority 2023, dated 2024)
pIC50: −log10 of the molar value.

Target: IL-1β secretion of THP-1 cells (Homo sapiens, UniProt Q96P20)
Test: Effect of NLRP3 inhibitor on IL-1β secretion of THP-1 cells (AlphaLISA)
Type: cell-based
Settings: PMA 50nM, LPS 100ng/ml, Nigericin 10µM, IL-1β in supernatant
Method: This experiment used the PerkinElmer AlphaLISA_human_IL1β kit (AL220 C/F). The detection buffer was RPMI-1640+10FBS. AlphaLISA Immunoassay Buffer, AlphaLISA Anti-IL1β Acceptor beads, Streptavidin (SA)-coated Donor beads, and Biotinylated Antibody Anti-IL1β were all included in the kit.
The density of THP1 cells was adjusted to 4×10^5 cells/mL, PMA (final concentration 50nM) was added, inoculated into 96-well flat-bottom plates at 200µL/well, and stimulated overnight at 37°C, 5% CO2 (try to <16h). The next day, the supernatant was discarded, and the flat washed twice with DPBS (200µL/time). Then LPS solution (final concentration of 100ng/ml) was added at 198µL/well , incubated at 37°C, 5% CO2 for 3h. 1µL of the corresponding concentration of compounds was added to each well according to the experimental MAP, incubated at 37°C, 5% CO2 for 1h. 1µL Nigericin (final concentration of 10µM) was added to each well, incubated overnight at 5% CO2 (>18h). On the third day, 5µL of supernatant was taken, diluted 20 times, and the content of IL-Iβ in the supernatant was detected by Human Interleukin 1 beta (IL1β) Kit. Envision was used to read the AlphaLISA test value of Ex = 680/ Em = […]. GraphPad Prism 9.5.0 was used to analyze the data, and the IC50 value of the compound for IL-Iβ antagonism was fitted by four-parameter Logistic. […] Table 2: Results of IC50 experiments using THP-1 cells to detect NLRP3 inhibitors

Sequence of IL-1β secretion of THP-1 cells (Q96P20 whole entry): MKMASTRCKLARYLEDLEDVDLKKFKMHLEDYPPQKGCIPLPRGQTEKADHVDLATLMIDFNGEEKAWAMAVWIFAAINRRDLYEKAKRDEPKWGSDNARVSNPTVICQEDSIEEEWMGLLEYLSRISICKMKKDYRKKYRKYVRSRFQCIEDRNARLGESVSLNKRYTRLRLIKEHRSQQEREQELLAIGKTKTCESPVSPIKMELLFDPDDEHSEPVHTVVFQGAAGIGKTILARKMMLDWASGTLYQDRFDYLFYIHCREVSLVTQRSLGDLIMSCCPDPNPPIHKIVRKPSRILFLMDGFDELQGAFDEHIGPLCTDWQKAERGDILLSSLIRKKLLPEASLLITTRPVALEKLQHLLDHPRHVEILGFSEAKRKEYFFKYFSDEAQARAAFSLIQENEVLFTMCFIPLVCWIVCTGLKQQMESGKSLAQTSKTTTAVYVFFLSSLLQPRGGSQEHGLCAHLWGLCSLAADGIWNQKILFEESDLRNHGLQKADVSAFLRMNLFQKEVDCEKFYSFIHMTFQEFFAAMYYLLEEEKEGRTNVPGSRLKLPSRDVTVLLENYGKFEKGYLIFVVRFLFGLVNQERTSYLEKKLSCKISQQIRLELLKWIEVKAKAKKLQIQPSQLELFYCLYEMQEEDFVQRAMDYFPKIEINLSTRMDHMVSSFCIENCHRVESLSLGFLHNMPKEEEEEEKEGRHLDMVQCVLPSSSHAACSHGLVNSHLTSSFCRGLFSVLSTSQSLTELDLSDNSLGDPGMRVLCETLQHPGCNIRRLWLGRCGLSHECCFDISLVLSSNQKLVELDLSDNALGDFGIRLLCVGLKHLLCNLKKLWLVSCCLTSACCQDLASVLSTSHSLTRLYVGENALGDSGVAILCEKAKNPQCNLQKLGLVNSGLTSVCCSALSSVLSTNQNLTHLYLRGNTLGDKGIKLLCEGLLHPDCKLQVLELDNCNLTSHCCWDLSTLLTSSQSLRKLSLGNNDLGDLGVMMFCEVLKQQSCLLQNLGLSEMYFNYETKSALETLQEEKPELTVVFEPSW

| pIC50 | Compound |
| --- | --- |
| > 7.30 | CCN1CCC[C@@H](Nc2nc3ccc(-c4c(C)cc(C(F)(F)F)cc4O)nn3n2)C1 [compound 439] |
| > 7.30 | Cc1cc(C(F)(F)F)cc(O)c1-c1cc(C)c2nc(N[C@@H]3CCCN(C)C3)nn2n1 [compound 446] |
| > 7.30 | Cc1cc(C(F)(F)F)cc(O)c1-c1cc(C)n2nc(N[C@H]3CCCN(CCO)C3)nc2n1 [compound 460] |
| 7.00 to 7.30 | Cc1cc(C(F)(F)F)cc(O)c1-c1cc(C)n2nc(N3CCOCC3)nc2n1 [compound 440] |
| > 7.30 | Cc1cc(C(F)(F)F)cc(O)c1-c1ccc2nc(N[C@@H]3CCCN(C)C3)nn2n1 [compound 445] |
| 7.00 to 7.30 | Cc1cc(C(F)(F)F)cc(O)c1-c1ccc2oc(NC[C@@H](C)O)nc2n1 [compound 413] |
| 6.30 to 7.00 | Cc1cc(C(F)(F)F)cc(O)c1-c1ccc2nc(N3CCOCC3)nn2n1 [compound 423] |
| > 7.30 | Cc1cc(C(F)(F)F)cc(O)c1-c1ccn2nc(N[C@@H]3CCCN(C)C3)nc2n1 [compound 444] |
| > 7.30 | CCN1CCC[C@@H](Nc2nc3c(C)cc(-c4c(C)cc(C(F)(F)F)cc4O)nn3n2)C1 [compound 447] |
| > 7.30 | Cc1cc(C(F)(F)F)cc(O)c1-c1cc(C)c2nc(N3CCOCC3)nn2n1 [compound 424] |
| > 7.30 | Cc1cc(C(F)(F)F)cc(O)c1-c1ccn2nc(N3CCOCC3)nc2n1 [compound 426] |
| > 7.30 | Cc1cc(C(F)(F)F)cc(O)c1-c1ccc2oc(N[C@@H]3CCCN(CCO)C3)nc2n1 [compound 404] |
| 6.30 to 7.00 | CCN1C[C@H](F)C[C@@H](Nc2nc3nc(-c4c(C)cc(C(F)(F)F)cc4O)ccc3o2)C1 [compound 397] |
| > 7.30 | CC(=O)NC[C@@H]1COCCN1c1nc2c(C)cc(-c3c(C)cc(C(F)(F)F)cc3O)nn2n1 [compound 442] |
| > 7.30 | Cc1cc(C(F)(F)F)cc(O)c1-c1ccc2oc(N[C@@H]3CCCN(C4CC4)C3)nc2n1 [compound 399] |
| > 7.30 | Cc1cc(C(F)(F)F)cc(O)c1-c1ccc2oc(N[C@@H]3CCCN(C(C)C)C3)nc2n1 [compound 400] |
| > 7.30 | Cc1cc(C(F)(F)F)cc(O)c1-c1cc(C)n2nc(N[C@@H]3CCCN(C)C3)nc2n1 [compound 443] |
| > 7.30 | CC(=O)NC[C@@H]1COCCN1c1nc2nc(-c3c(C)cc(C(F)(F)F)cc3O)cc(C)n2n1 [compound 441] |
| 6.30 to 7.00 | Cc1cc(C(F)(F)F)cc(O)c1-c1ccc2nc(N3CCS(=O)(=O)CC3)nn2n1 [compound 422] |
| > 7.30 | CCN1CCC[C@H](Nc2nc3nc(-c4c(C)cc(C(F)(F)F)cc4O)cc(C)n3n2)C1 [compound 462] |
| > 7.30 | CCN1CCC[C@@H](Nc2nc3nc(-c4c(C)cc(C(F)(F)F)cc4O)ccn3n2)C1 [compound 448] |

The next lines start with the molecule.

| Compound | pIC50 |
| --- | --- |
| CCS(=O)(=O)N1CCN(c2nc3nc(-c4c(C)cc(C(F)(F)F)cc4O)ccc3o2)CC1 [compound 388] | 7.00 to 7.30 |
| CCN1CCC[C@@H](N2CC(=O)Nc3cc(-c4c(C)cc(C(F)(F)F)cc4O)nnc32)C1 [12-a] | > 7.30 |
| Cc1cc(C(F)(F)F)cc(O)c1-c1ccc2oc(N3CC4CCC(C3)O4)nc2n1 [compound 381] | 6.30 to 7.00 |
| Cc1cc(Cl)cc(O)c1-c1ccc2oc(N3CCS(=O)(=O)CC3)nc2n1 [compound 387] | 7.00 to 7.30 |
| Cc1cc(C(F)(F)F)cc(O)c1-c1ccc2oc(N3CCN(S(C)(=O)=O)CC3)nc2n1 [compound 390] | > 7.30 |
| Cc1cc(C(F)(F)F)cc(O)c1-c1ccc2[nH]c(NCC(C)(C)O)nc2n1 [Compound 6] | 6.30 to 7.00 |
| Cc1cc(C(F)(F)F)cc(O)c1-c1ccc2oc(N3CCOC[C@H]3C)nc2n1 [compound 371] | 7.00 to 7.30 |
| Cc1cc(C(F)(F)F)cc(O)c1-c1ccc2oc(N3CCN(S(=O)(=O)C4CC4)CC3)nc2n1 [compound 392] | > 7.30 |
| Oc1cc(Cl)cc(O)c1-c1ccc2oc(N3CCOCC3)nc2n1 [compound 376] | > 7.30 |
| CCN1CCC[C@@H](n2ccc3cc(-c4c(C)cc(C(F)(F)F)cc4O)nnc32)C1 [11-a] | > 7.30 |
| Cc1cc(C(F)(F)F)cc(O)c1-c1ccc2oc(N3CCS(=O)(=O)CC3)nc2n1 [compound 384] | > 7.30 |
| CCS(=O)(=O)N1CCN(c2nc3nc(-c4c(C)cc(C(F)(F)F)cc4O)ccc3o2)C[C@@H]1C [compound 394] | 7.00 to 7.30 |

Tested on: not listed separately
Test: Liver microsome metabolic stability, human
Type: in vitro ADME, humans
Settings: human (h) liver microsomes 0.5 mg/ml, 45 min; read-out: LMS (h,r,m) (% rem, 45 min)
Method: (§1) Purpose: This experiment investigates the metabolic stability of the compound in liver microsomes of different species such as humans, mice and rats, and the residual content of the test compound after incubation with liver microsomes of different species such as humans, mice and rats.
(§2) Preparation of 500 µM solution of target compound and positive control: 5 µL of each 10 mM stock solution was taken, added to 95 µL acetonitrile, and mixed for 30 s;
(§3) Preparation of 6 mM NADPH solution: 100 mM Stock aliquot liquid was diluted with Mg-Mg-K-Buffer.
(§4) • 2.1.1 Liver microsome solution: 18.75 µL of 20 mg/mL HLM, RLM, MLM, DLM, MOLM (final concentration: 0.5 mg/ml) were taken and placed them in each well of a 96-well plate; • 2.1.2 1.5 µL of 500 µM solution of each compound was added respectively; • 2.1.3 479.8 µL of phosphate buffer was taken, then added to each compound well, and mixed at 1000 rpm in an oscillating mixer for 10 s.
(§5) 30 µL of the above samples were taken and aliquoted to a new 96-well plates respectively (including NADPH group, n=2, and no NADPH group at 0 and 45 min, n=1), marked as 0, 5, 15, 30 and 45 min; […]
(§6) The slope was calculated based on the LN value of the compound concentration percentage and time as the coordinate axis, and the residual content of the compound after incubation with liver microsomes was calculated based on the slope and formula. […]

| remaining at 0.75 h, 1 µM | Compound |
| --- | --- |
| 93.2% | CC(=O)N1CCOC[C@H]1CNc1nc2nc(-c3c(C)cc(C(F)(F)F)cc3O)ccc2o1 [Compound 111] |

Tested on: not listed separately
Test: Liver microsome metabolic stability, rat
Type: in vitro ADME, rats
Settings: rat (r) liver microsomes 0.5 mg/ml, 45 min; read-out: LMS (h,r,m) (% rem, 45 min)
Method: as §1, §2, §3, §4, §5, §6

| remaining at 0.75 h, 1 µM | Compound |
| --- | --- |
| 82.5% | CC(=O)N1CCOC[C@H]1CNc1nc2nc(-c3c(C)cc(C(F)(F)F)cc3O)ccc2o1 [Compound 111] |

Tested on: not listed separately
Test: Liver microsome metabolic stability, mouse
Type: in vitro ADME, mice
Settings: mouse (m) liver microsomes 0.5 mg/ml, 45 min; read-out: LMS (h,r,m) (% rem, 45 min)
Method: as §1, §2, §3, §4, §5, §6

| remaining at 0.75 h, 1 µM | Compound |
| --- | --- |
| 91.3% | CC(=O)N1CCOC[C@H]1CNc1nc2nc(-c3c(C)cc(C(F)(F)F)cc3O)ccc2o1 [Compound 111] |

Tested on: iodoacetic acid (MIA)-induced SD rat knee osteoarthritis model
Test: Efficacy on iodoacetic acid-induced SD rat knee osteoarthritis model
Type: in vivo, SD rats
Settings: 30mg/kg orally once a day from Day 7 to Day 42
Method: Purpose: Evaluate the efficacy of MCC950 (Positive reference compound) and compound 111 of the present invention on iodoacetic acid (MIA)-induced SD rat knee osteoarthritis model. Experimental materials: Experimental male SD rats, 4 weeks old. Model induction began after the experimental animals were adapted to the animal environment for 7 days. Day 0, the rats were anesthetized, the hair around the left knee joint was removed, and the skin was disinfected. The left leg was flexed 90° to expose the patellar platform. The depression in the middle of the platform was touched by hand to find the femoral condyle, patella and ligament. The syringe needle was inserted from the bottom of the patella on both sides of the patellar ligament to the direction of the femoral condyle. When a clear sense of empty space was felt, 50µL of iodoacetic acid solution was injected. Day 7 Grouping was performed according to the width of the knee joint on the induced side. The groups were: normal control group (healthy control without modeling, 5% DMSO+10% Solutol+85% Saline), model blank control group (5% DMSO+10% Solutol+85% Saline), MCC950 30mg/kg, and compound 111 of the present invention 30mg/kg. Starting from Day 7, the normal control group and the model blank control group were given the solvent (5% DMSO+10% Solutol+85% Saline) orally once a day, and the other groups were given the corresponding compounds orally once a day until the end of the administration on Day 42. The knee joint width and body weight of the rats were measured once on Day 7, 14, 21, 28, 35, and 42. This experiment tested the efficacy of MCC950 (Positive compound) and compound 111 of the present invention on the SD rat knee osteoarthritis model induced by iodoacetic acid (MIA), see Figures 1 and 2.

| Compound | body weight of the rats |
| --- | --- |
| CC(=O)N1CCOC[C@H]1CNc1nc2nc(-c3c(C)cc(C(F)(F)F)cc3O)ccc2o1 [Compound 111] | without affecting the body weight of the rats |

Same assay, conditions: 30mg/kg orally once a day from Day 7 to Day 42; compared with the model blank control group, 21 days to 42 days after modeling

| Compound | widening of the knee joints |
| --- | --- |
| CC(C)(O)c1coc(S(=O)(=O)NC(=O)Nc2c3c(cc4c2CCC4)CCC3)c1 [MCC950, reference compound] | significantly inhibit the widening of the knee joints |
| CC(=O)N1CCOC[C@H]1CNc1nc2nc(-c3c(C)cc(C(F)(F)F)cc3O)ccc2o1 [Compound 111] | significantly inhibit the widening of the knee joints |
